Data from publication PMC6524416, “Nanofibrous Scaffolds Support a 3D in vitro Permeability Model of the Human Intestinal Epithelium” (Frontiers in Pharmacology, 2019).
Where two headings read alike, the source gives them in different places.

What was measured:
[1] = Bidirectional permeability across ex vivo porcine intestinal segments; assay type: in vitro ADME, pig; settings: pig; for recovery: pH 7.4, porcine intestinal segments; for Papp A→B / Papp B→A: pH 7.4, all porcine segments (duodenum, jejunum, ileum); for Papp A→B: A to B, read-out: Papp (A to B), range over porcine segments; for Papp B→A: B to A, read-out: Papp (B to A), range over porcine segments
Procedure: (§1) In accordance with the NC3R framework on the reduction and refinement of animals in research; samples were only obtained from healthy adult pig cadavers being used for the purposes of other research projects. The work was conducted according to United Kingdom Home Office guidelines (Animal Scientific Procedures Act […]) and following local AWERB approval (ref 000057). Regional sections from the duodenum (first 25 cm from the stomach), jejunum (150 cm from the stomach) and ileum (first 50 cm back from the ileocecal valve) were resected from pig cadavers (Supplementary Figure S2). Using tweezers the serosa and muscularis propria (muscle layers) were carefully peeled away leaving the mucosa. Sections were washed in PBS, cut to fit the Transwell® inserts (Corning Life Sciences) and transferred in 6-well plates. All tissue was kept on the ice and used within a 24 h time period, post-collection.
(§2) Transport studies were conducted using standard, widely accepted protocols as previously described ([Volpe, 2008]). Transport markers were prepared in transport buffer (HBSS, 25 mM HEPES, pH 7.4). Dimethyl sulfoxide (DMSO) was used to aid solubilisation of poorly soluble drugs at a maximum final concentration of 0.1% (v/v) used in all transport experiments. TEER was measured before and after each experiment to ensure barrier integrity during the experiments and as a control measure of experimental validity. Inserts were transferred to fresh plates containing transport buffer (apical/basolateral volumes were 0.4/1.2 mL and 0.5/6 mL for Transwell® and Snapwell® inserts, respectively). Donor solutions were added to the relevant compartments and the inserts were then incubated at 37°C with shaking at 150 rpm and sampled at intervals of 30 min or 1 h for 1–2 h. Apparent permeability coefficients (Papp) were calculated according to Eq. 2:
(§3) Where dQ/dt is the flux of the compound being investigated (μM s-1), A is the exposed surface area of the insert/scaffold (cm^2) and C0 is the concentration in the apical compartment at t = 0 (μM).
(§4) Compound recovery following permeability assessment were calculated according the following Eq. 3:
(§5) (3) Recovery (%)=[CR(final)×VR(final))×100/(CD(initial)×VD(initial)]
(§6) Where CD and CR are the donor and receiver compartment concentrations, VD and VR are the donor and receiver compartment volumes at t = 0 (initial) or the end of the experiment (final).
(§7) All HPLC was performed using a Kinetix XB-C18 5 μm, 100 Å pore size, 150 mm × 4.56 mm column (with a guard column) on an Agilent 1100 HPLC system. […] Samples were analyzed using gradient runs with Milli-Q dH2O, 0.5% TFA (eluent A) and acetonitrile, 0.5% TFA (eluent B).

[2] = Bidirectional permeability across Caco-2 monolayers on Transwell inserts; assay type: in vitro ADME, human; settings: human, Caco-2 on Transwell; for Papp A→B: apical to basolateral; for Papp A→B / Papp B→A: pH 7.4, mean (±SD); for Papp B→A: basolateral to apical
Procedure: (§8) Caco-2 (used within 20 passages throughout the study) was obtained from the Clinical Pathology Laboratory, Queens Medical Centre, Nottingham and are available from ATCC. They were cultured in DMEM (Gibco) supplemented with 10% (v/v) foetal calf serum (FCS), 2 mM L-Glutamine solution, 1% (v/v) antibiotic/antimycotic solution (Gibco; final concentrations of […] streptomycin sulfate and 25 μgmL^-1 amphotericin B) at 37°C, 5% CO2 in 95% relative humidity (RH). Cells were cultured to around 80% confluence before harvesting cells by passaging with Trypsin/EDTA (Sigma Aldrich). Cell culture media was replaced every 2 days. For the initial evaluation of the scaffold compatibility, Collagen type I and untreated nanofibrous scaffolds were mounted in 24-well Cell Crown^TM inserts (Scaffdex). The mounted inserts were then placed in 12-well culture plates and seeded with 50,000 cells in 200 μL per insert. An additional 1 mL culture media was added to the well of the plate which ensured the insert were adequately surrounded and bathed in culture media. Following 24 h of culture at 37°C, 5% CO2, the PrestoBlue viability assay was carried out according to manufacturer’s instructions. In brief, a working solution of 10% (v/v) was prepared from the stock PrestoBlue solution in HBSS and sterile filtered using a 0.2 μm pore filter. Samples were washed three times with pre-warmed PBS and the working solution of PrestoBlue solution applied to the upper chamber of the inserts. Following a 30 min incubation period at 37°C, 5% CO2 with shaking at 150 rpm, 100 μL aliquots were taken from each sample and dispensed in triplicate into a black 96-well plate. The fluorescence of the samples was determined using a plate reader (Tecan Infinite 200, Tecan, United Kingdom) at 530/590 nm (excitation/emission wavelengths). Subsequent viability assays were conducted on day 3 and day 6 of culture to provide an initial assessment of the benefit of the surface treatments on cell adhesion and proliferation. To evaluate barrier formation, Snapwell® hanging inserts (6-well; Corning Life Sciences) were employed as unlike the CellCrown^TM inserts, the Snapwell® hanging inserts provided discrete apical and basolateral chambers in a 6-well plate formate appropriate for assessing barrier formation. The existing polycarbonate membrane on the securing clip of the Snapwell® insert were removed with a scalpel and the nanofiber scaffold affixed securely to the hanging insert by means of the securing clip (Supplementary Figure S1). Cells were seeded using the same cell density (178,000 cells/cm^2) as had been previously optimized for Caco-2 Transwell® cultures ([Hubatsch et al., 2007]). A cell suspension containing 200,000 cells in 500 μL were seeded onto the upper chamber of the Snapwell® inserts and cultured for 15–21 days at 37°C, 5% CO2 in air prior for TEER evaluation and for permeability tests.
as §2, with “2: […]” for “2:”

[3] = Bidirectional permeability across Caco-2 cultures on collagen-coated PET nanofibrous scaffolds; assay type: in vitro ADME, human; settings: human, Caco-2 on nanofiber scaffolds, pH 7.4, mean (±SD)
Procedure: (§9) Polyethylene terephthalate flakes (food grade; were procured from recycled plastic bottles and processed in-house) were dissolved in a 1:1 solution of dichloromethane and trifluoroacetic acid (overnight with stirring) and the polymer solution transferred into a syringe fitted with a blunt needle (18 gauge spinneret) attached to a syringe pump (Harvard Apparatus, United Kingdom). Electrospinning was conducted at a flow rate of 0.5 mL/hr at 14 kV voltage (Glassman High Voltage Inc., Series EL, Glassman Europe Ltd., United Kingdom; Supplementary Figure S1). The fibers were collected on a grounded static plate or rotating collector (a tip-collector distance of 15 cm). The scaffolds were removed with the aid of 70% (v/v) IMS and allowed to air dry at room temperature (RT).
(§10) The nanofibrous scaffolds were surface coated with type I bovine collagen (Sigma-Aldrich). For type I bovine collagen coating, 150 μL of collagen solution (stock and working concentrations 3.1 mg/mL and 31 μg/mL, respectively) was gently pipetted ensuring adequate coverage of the entire scaffold. Samples were incubated at RT under aseptic conditions for 1–2 h. Any remaining collagen solution was aspirated and the scaffolds washed with PBS before cell seeding. Control scaffolds included PET nanofibers with no surface treatment.
as §8, with “S1).” for “S1). Cells were seeded using the same cell density (178,000 cells/cm^2) as had been previously optimized for Caco-2 Transwell® cultures ([Hubatsch et al., 2007]). A cell suspension containing 200,000 cells in 500 μL were seeded onto the upper chamber of the Snapwell® inserts and cultured for 15–21 days at 37°C, 5% CO2 in air prior for TEER evaluation and for permeability tests.”

[4] = system: Caco-2 cultures on nanofibrous scaffolds; assay: as above; assay type: in vitro ADME, human
Procedure: as §9, §10
as §8, with “S1).” for “S1). Cells were seeded using the same cell density (178,000 cells/cm^2) as had been previously optimized for Caco-2 Transwell® cultures ([Hubatsch et al., 2007]). A cell suspension containing 200,000 cells in 500 μL were seeded onto the upper chamber of the Snapwell® inserts and cultured for 15–21 days at 37°C, 5% CO2 in air prior for TEER evaluation and for permeability tests.”

[5] = system: porcine intestinal tissue; settings: uncorrected Papp; ref Westerhout et al. (2014); cited from earlier work
[6] = system: porcine intestinal segments; assay: Bidirectional permeability across ex vivo porcine intestinal segments; assay type: in vitro ADME, pig
Procedure: as §1, §2, §3, §4, §5, §6, §7

human jejunal = settings: ref Sjöberg et al. (2013), Rozehnal et al. (2012), cited from earlier work
[7] = system: Caco-2 monolayers on Transwell®; assay: Bidirectional permeability across Caco-2 monolayers on Transwell inserts; assay type: in vitro ADME, human; settings: Caco-2 on Transwell, pH 7.4, mean (±SD)
Procedure: as §8
as §2, with “2: […]” for “2:”

Caco-2 monolayers = system: Caco-2 monolayers; parameters: method as in Artursson et al., 1993, 2001; settings: ref Artursson et al., 1993, 2001; cited from earlier work

## CC(C)NCC(O)COc1ccc(CC(N)=O)cc1 (stereo not drawn) [ATN, Atenolol]
[1]; read-out: average recovery
  recovery: 80%
[1]; read-out: recovery (range)
  recovery: 70 to 95%

## CC(C)NCC(O)COc1cccc2ccccc12 (stereo not drawn) [PRN, Propranolol]
[2]
  Papp A→B: 30.7 ×10⁻⁶ cm/s
  Papp B→A: 32 ×10⁻⁶ cm/s
[3]; apical to basolateral
  Papp A→B: 86.3 ×10⁻⁶ cm/s
[3]; basolateral to apical
  Papp B→A: 75.1 ×10⁻⁶ cm/s
[4]; nanofiber based culture vs Transwell Caco-2
  increase in permeability over Transwell cultures: more than a two-fold increase
[5]
  Papp: 0.42 ×10⁻⁶ cm/s
[1]; read-out: average recovery
  recovery: 58%
[1]; read-out: recovery (range)
  recovery: 35 to 75%
[1]
  Papp A→B: 7.76 to 9.6 ×10⁻⁶ cm/s
  Papp B→A: 1.85 to 5.5 ×10⁻⁶ cm/s

## COC(=O)c1ccccc1-c1c2ccc(=N)cc-2oc2cc(N)ccc12 [Rho-123, rhodamine 123]
[2]; pH 7.4, B to A / A to B
  efflux ratio at 10 µM: 4.6
[2]
  Papp A→B: 0.82 ×10⁻⁶ cm/s
  Papp B→A: 3.8 ×10⁻⁶ cm/s
[4]; 3D nanofiber based cultures
  active efflux: not detectable
[1]; read-out: recovery (range)
  recovery: 37 to 54%
[1]
  Papp A→B: 5.6 to 7.6 ×10⁻⁶ cm/s
  Papp B→A: 1.8 to 3.6 ×10⁻⁶ cm/s
[6]; porcine tissue segments
  active efflux: not detectable

## OC[C@@H](O)[C@@H](O)[C@H](O)[C@H](O)CO [mannitol]
Human jejunal; second listed value
  human jejunal Papp: 5.56 ± 2.21 × 10^-6 cm s^-1

## lucifer yellow [LY]
[7]; apical to basolateral
  Papp (A to B): 0.30 (±0.13) × 10^-6 cm s^-1
[7]; basolateral to apical
  Papp (B to A): 0.66 (±0.23) × 10^-6 cm s^-1
[4]; Caco-2 on nanofiber scaffolds, apical to basolateral, pH 7.4, mean (±SD)
  Papp (A to B): 7.14 (±0.4.53) × 10^-6 cm s^-1
[4]; Caco-2 on nanofiber scaffolds, basolateral to apical, pH 7.4, mean (±SD)
  Papp (B to A): 8.51 (±6.61) × 10^-6 cm s^-1
[6]; porcine duodenal section
  Papp (A to B): 4.66 (±1.19) × 10^-6 cm s^-1
  Papp (B to A): 2.01 (±0.85) × 10^-6 cm s^-1
[6]; porcine ileal section
  Papp (A to B): 5.58 (±3.93) × 10^-6 cm s^-1
  Papp (B to A): 3.80 (±3.46) × 10^-6 cm s^-1
[6]; porcine jejunal section
  Papp (A to B): 5.71 (±1.50) × 10^-6 cm s^-1
  Papp (B to A): 4.31 (±2.58) × 10^-6 cm s^-1
Human jejunal; first listed value
  human jejunal Papp: 4.02 ± 2.20 × 10^-6 cm s^-1

## polyethylene glycols
Caco-2 monolayers
  fold lower permeability in Caco-2 monolayers compared to human in vivo: ~100 fold
